Measurements as given in US12083165B2, “Thymosin alpha 1 for use in treatment of cystic fibrosis” (SciClone Pharmaceuticals International (SG) PTE. LTD., priority 2015, dated 2024).

Key:
ΔF508 CFTR = ΔF508 CFTR (Homo sapiens, UniProt P13569, DEL508-508); experiment: Immunoblot of purified plasma membrane (PM) fraction for CFTR; format: cell-based; conditions: 100 ng/ml Tα1, plasma membrane fraction
Protocol: CFTR Immunoblot Analysis. Immunoblot techniques using the anti-CFTR antibody (clone CF3, Abcam) were used to measure CFTR maturation in FRT, HEK-293, or HBE cells expressing CFTR or F508del-CFTR (34). After incubation, cells were harvested in ice-cold D-PBS solution (without calcium and magnesium) and pelleted at 1,000×g at 4° C. Cell pellets were lysed in 1% Nonidet P-40, 0.5% sodium deoxycholate, 200 mM NaCl, 10 mM Tris, pH 7.8, and 1 mM EDTA plus protease inhibitor mixture (1:250; Roche) for 30 min on ice. Lysates were spun for 10 min at 10,000×g at 4° C. to pellet nuclei and insoluble material. Approximately 12 μg total protein was heated in Laemmli buffer with 5% β-mercaptoethanol at 37° C. for 5 min and loaded onto a 3% to 8% Tris-acetate gel (Invitrogen). […] LiteAblotPlus chemiluminescence substrate (Euroclone S.p.A.), using ChemiDoc™ XRS+ Imagig system (Bio-Rad Laboratories) and blot quantification was obtained by densitometry image analysis using Image Lab 3.1.1 software (Bio-Rad).
The SV40 transformed CF airway epithelial cell line (CFBE41o−), homozygous for the ΔF508-CFTR mutation, was used (32). […] CFTR bands were quantified by densitometry and expressed as the C/B ratio. […] Densitometric measurement of the CFTR (C band) at the PM was expressed as CFTR PM/CFTR total ratio (Panel C, FIG. 2).

TMEM16A [1] = experiment: DNA microarray analysis of mice with pulmonary aspergillosis; format: in vivo; conditions: unpublished results
[2] = system: A. fumigatus-infected C57BL/6 and Cftr−/− mice; experiment: Th cytokines in lungs and transcription factors in draining thoracic lymph nodes (ELISA or RT-PCR); format: in vivo
Protocol: Mice. Wild-type (WT) inbred C57BL6 mice, 8 to 12 weeks old, were purchased from Charles River Breeding Laboratories (Calco, Italy). Genetically engineered homozygote Cftr^−/− mice (33) were bred at the Cystic Fibrosis core animal facility at San Raffaele Hospital, Milan, Italy. Experiments were performed following protocols approved by the institutional animal committee and in accordance with European Economic Community Council Directive as well as institutional animal care and use guidelines.
Infection and treatments. Mice were anesthetized by i.p. injection of 2.5% avertin (Sigma Chemical Co, St. Louis, MO) before intranasal instillation of 2×10^7 A. fumigatus (Af293) resting conidia/20 μl saline. For histology, paraffin-embedded tissue were stained with Periodic acid-Schiff (PAS), and BAL fluid collection was done as described (21, 22). Treatments were as follow: Tα1 and the scrambled polypeptide were supplied as purified (the endotoxin levels were <0.03 pg/ml, by a standard limulus lysate assay) sterile, lyophilized, acetylated polypeptide. The sequences were as follows: Ac-[…]O (Tα1) (SEQ ID NO:1) and Ac-[…]OH (scrambled peptide) (SEQ ID NO:2). The lyophilized powders were reconstituted in sterile water and 200 μg/kg/i.p. were given daily for 6 consecutive days beginning the day of the infection.
(§1) Reverse transcriptase-polymerase chain reaction (RT-PCR). Total RNA extraction and synthesis and PCR of cDNA were done on total lung cells as described (21, 22). Amplification efficiencies were validated and normalized against Gapdh. The thermal profile for SYBR Green real-time PCR was at 95° C. for 3 min, followed by 40 cycles of denaturation for 30 s at 95° C. and an annealing/extension step of 30 s at 60° C. Each data point was examined for integrity by analysis of the amplification plot. The mRNA-normalized data were expressed as relative mRNA in treated cells compared to that of unstimulated cells.
Cytokine determination by ELISA. Cytokine levels in lung homogenates from treated and untreated mice were determined by cytokine-specific ELISA (R&D Systems, Inc. Space Import-Export srl, Milan, Italy) as described (21, 22)
The inflammatory Th17 pathway is involved in CF lung inflammation (21, 22, 43) while the Th2 pathway is associated with CF fungal allergy (44). For the assessment of the effects of Tα1 on Th cell activation, levels of Th cytokines in the lungs and of the corresponding transcription factors in the draining thoracic lymph nodes have been measured in C57BL/6 and Cftr^−/− mice infected and treated with Tα1 as above. Tα1 decreased Th17 (decreased levels of IL-17A and of the Th17 transcription factor Rorc), Th2 (low IL-4 and Gata3) cell activation while promoting both Th1 (increased IFN-γ and Tbet) and Treg (increased IL-10 and Foxp3) cell activity. […] The cytokine levels were assessed in lung homogenates (by ELISA or RT-PCR) and the expression of the corresponding Th transcription factors (by RT-PCR) in the draining thoracic lymph nodes. The results shown represent pooled data from two experiments. n.d. not done. *P<0.05; **P<0.01; ***P<0.001.

TMEM16A [3] = experiment: TMEM16A mRNA expression by RT-PCR in HBE cells from control or CF patients; format: cell-based, human; conditions: 100 ng/ml
Protocol: as §1
Pharmacological correction of the ion transport defect by targeting of mutant CFTR, or alternative ion channels that may compensate for CFTR dysfunction, has long been considered as an attractive approach to a causal therapy of CF (37). […] Activation of TMEM16A with pharmacological agents could circumvent the primary defect in CF, irrespective of CFTR genotype (40). […] Based upon these findings, whether TMEM16A expression was induced by Tα1 on HBE cells from control or CF patients has been evaluated. To this purpose cells have been exposed to 100 ng/ml of Tα1 up to 24 hours and assessed TMEM16A mRNA expression by RT-PCR on total RNA from cells.

[4] = draining thoracic lymph nodes, RT-PCR

Chain of ΔF508 CFTR (P13569 with tags, fused parts or gaps DEL508-508): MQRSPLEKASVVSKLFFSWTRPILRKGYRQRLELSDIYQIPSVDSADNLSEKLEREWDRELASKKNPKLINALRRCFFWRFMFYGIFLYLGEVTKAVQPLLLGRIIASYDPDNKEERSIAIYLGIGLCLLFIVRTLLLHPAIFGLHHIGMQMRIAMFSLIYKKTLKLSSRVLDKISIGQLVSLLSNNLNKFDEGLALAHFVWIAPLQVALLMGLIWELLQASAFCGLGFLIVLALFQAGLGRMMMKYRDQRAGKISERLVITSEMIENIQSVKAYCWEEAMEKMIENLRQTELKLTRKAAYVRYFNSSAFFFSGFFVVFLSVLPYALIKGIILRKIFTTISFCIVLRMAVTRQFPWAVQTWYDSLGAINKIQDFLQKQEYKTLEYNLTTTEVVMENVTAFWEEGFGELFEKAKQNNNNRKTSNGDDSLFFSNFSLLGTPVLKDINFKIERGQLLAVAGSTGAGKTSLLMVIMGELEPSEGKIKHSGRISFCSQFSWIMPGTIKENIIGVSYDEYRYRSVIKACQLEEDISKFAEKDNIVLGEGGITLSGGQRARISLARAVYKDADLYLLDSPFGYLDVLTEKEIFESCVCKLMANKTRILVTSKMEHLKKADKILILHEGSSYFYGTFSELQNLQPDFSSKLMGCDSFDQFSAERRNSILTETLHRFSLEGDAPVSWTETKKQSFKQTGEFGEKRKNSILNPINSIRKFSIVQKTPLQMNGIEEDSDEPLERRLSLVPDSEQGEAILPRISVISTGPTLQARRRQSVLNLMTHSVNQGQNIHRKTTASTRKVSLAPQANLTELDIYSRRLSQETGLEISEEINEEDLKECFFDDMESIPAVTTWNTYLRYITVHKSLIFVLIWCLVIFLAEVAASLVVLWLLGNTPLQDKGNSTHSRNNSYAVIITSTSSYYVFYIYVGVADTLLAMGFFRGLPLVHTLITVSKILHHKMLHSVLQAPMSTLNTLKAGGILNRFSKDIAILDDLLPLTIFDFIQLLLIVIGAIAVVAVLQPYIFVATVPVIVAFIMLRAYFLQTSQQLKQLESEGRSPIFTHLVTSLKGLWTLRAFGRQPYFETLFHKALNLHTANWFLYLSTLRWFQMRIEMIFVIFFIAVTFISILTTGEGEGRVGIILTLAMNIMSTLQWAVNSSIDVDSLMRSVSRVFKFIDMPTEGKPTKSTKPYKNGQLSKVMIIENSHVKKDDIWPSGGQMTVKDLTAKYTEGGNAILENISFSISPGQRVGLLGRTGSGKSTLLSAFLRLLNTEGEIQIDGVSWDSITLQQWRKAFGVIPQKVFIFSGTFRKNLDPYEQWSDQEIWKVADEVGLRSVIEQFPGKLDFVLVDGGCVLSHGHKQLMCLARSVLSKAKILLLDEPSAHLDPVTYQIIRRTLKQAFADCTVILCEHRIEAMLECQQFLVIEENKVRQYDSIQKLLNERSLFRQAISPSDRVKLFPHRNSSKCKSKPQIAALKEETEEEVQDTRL

## Ac-Ser-Asp-Ala-Ala-Val-Asp-Thr-Ser-Ser-Glu-Ile-Thr-Thr-Lys-Asp-Leu-Lys-Glu-Lys-Lys-Glu-Val-Val-Glu-Glu-Ala-Glu-Asn-O (Ac-SDAAVDTSSEITTKDLKEKKEVVEEAEN-OH; not fully specified; printed as Ac-Ser-Asp-Ala-Ala-Val-Asp-Thr-Ser-Ser-Glu-Ile-Thr-Thr-Lys-Asp-Leu-Lys-Glu-Lys-Lys-Glu-Val-Val-Glu-Glu-Ala-Glu-Asn-O; listed as Homo sapiens) [Tα1, naturally occurring polypeptide of 28 amino acid; supplied as purified sterile, lyophilized, acetylated polypeptide]
ΔF508 CFTR
  expression of ΔF508 CFTR at PM (CFTR PM/CFTR total ratio): increased
TMEM16A [1]
  expression of TMEM16A in mice with pulmonary aspergillosis: greatly increased
[2]; [4]
  Foxp3 expression (Treg): increased
  Gata3 expression (Th2): low
  Tbet expression (Th1): increased
  Th17 transcription factor Rorc expression: decreased
[2]; lung homogenates
  IFN-γ level (Th1): increased
  IL-4 level (Th2): low
  IL-10 level (Treg): increased
[2]; lung homogenates, infected and Tα1-treated C57BL/6 and Cftr−/− mice
  IL-17A level (Th17): decreased
TMEM16A [3]; CF HBE cells, after 4 hours
  TMEM16A expression: markedly increased
TMEM16A [3]; CF HBE cells, at 24 hours
  TMEM16A expression: remains elevated
TMEM16A [3]; control HBE cells, after 4 hours
  TMEM16A expression: markedly increased
TMEM16A [3]; control HBE cells, at 24 hours
  TMEM16A expression: returned to baseline levels
